According to patent publication US20050171028A1, “Thioketals and thioethers for inhibiting the expression of VCAM-1” (Atherogenics Pharmaceuticals, Inc., priority 2000, published 2005):

Assays:
Assay type in all cases: cell-based
VCAM-1 = VCAM-1 assay: enzyme immunoassay of TNF-alpha induced VCAM-1 expression in endothelial cells; conditions: Homo sapiens, Endothelial cell; HAEC stimulated with TNF-alpha (1 ng/ml), about 16 hours with compound; read-out: VCAM-1 IC50 or % inhibition at
Method: The VCAM-1 assay is an enzyme immunoassay to detect tumor necrosis factor alpha (TNF-alpha) induced Vascular Cell Adhesion Molecule (VCAM-1) expression in endothelial cells.
(§1) Human aortic endothelial cells (HAEC) were purchased from Clonetics and maintained in EGM media (Clonetics) supplemented with 5% fetal bovine serum (FBS). In a typical experiment, cells were seeded in 96-well plates. The next day cells were stimulated with TNF-alpha (1 ng/ml) purchased from Boehringer Mannheim in the presence or absence of compounds dissolved in dimethylsulphoxide (DMSO). To establish a dose curve for each compound, four concentrations in 2 fold increments were used. Cells were exposed to TNF-α and compounds for approximately 16 hours. The next day, cells were examined under microscope to score for visual signs of toxicity.
Media was discarded and the cells were washed once with Hanks buffered saline solution (HBSS)/phosphate buffered solution (PBS) 91:1). Primary mouse monoclonal antibody against VCAM-1 purchased from Southern Biotechnology Associates (0.25 μg/ml in HBSS/PBS+5% FBS) was added and incubated at 37° C. for 30 minutes. Cells were washed with HBSS/PBS three times, and secondary antibody horse radish peroxidase (HRP)-conjugated goat anti-mouse IgG purchased from Southern Biotechnology Associates (1:500 in HBSS/PBS+5% FBS) was added and incubated at 37° C. for 30 minutes. Cells were washed with HBSS/PBS four times and peroxidase substrate 3.3′,5,5′-tetramethyl-benzidine (TMB) was added and incubated in the dark at room temperature until there was adequate blue color development. The length of incubation time was typically 5-15 minutes. 2 N sulfuric acid was added to stop the color development and the data was collected by reading the absorbance at O.D. 450 nm. The result was expressed as the percentage of control sample (cells stimulated by TNF without any compound).
(§2) The degree of inhibition of various compounds, including the compounds prepared in the foregoing examples, using the assays described in Examples 6-9, are provided in Table IX. Results are expressed in micromolar quantities.

[1] = test system: Human aortic endothelial cells (HAEC); test: LD50 (toxicity to cells; visual signs of toxicity scored in the VCAM-1 assay)
Method: as §1, §2

ApoB/HepG2 = test: Lipid screen: ApoB ELISA on media of treated HEPG2 cells; conditions: Homo sapiens; HEPG2 cells treated 24 hours; ApoB accumulation in media as percentage of control; read-out: ApoB/Hep G2 IC50 or % inhibition at
Method: HEPG2 cell was started in 10 ml of MEM, 10% FBS, 1 mM Sodium Pyruvate. The cells were incubated in a tissue culture incubator. The cells were split into 4×96-wells plate in MEM, 10% FBS, 1 mM Sodium Pyruvate and allowed to grow to about 50% confluency and then removed.
The cells were treated with the desired concentration of compounds in 100 μl DMEM, 1% RSA for 24 hours. The compounds are dissolved in DMSO.
On the same day, 4×96-wells NuncImmunoSorb plate is coated with 100 μl of mouse anti-human ApoB monoclonal 1D1 (1:1000 dilution in 1×PBS, pH 7.4). The coating is allowed to stand overnight.
The coated plate is washed 3 times with 1×PBS, pH 7.4, −0.05% Tween 20. 100 μl of the standards is added to the selected wells. ApoB standards are prepared at 6.25, 3.12, 1.56, 0.78, 0.39 ng, and each concentration is done in triplicates.
90 μl of 1×PBS, pH 7.4, −0.05% Tween 20 is added to each well corresponding to the sample. 10 μl of media is transferred from the treated HEPG2 plates to the ApoB ELISA plate. The plate is incubated at room temperature for 2 hours, rocking gently.
Wash the coated plate 3× with 1×PBS, pH 7.4, −0.05% Tween 20. Add 100 μl of sheep anti-human ApoB polyclonal from Boehringer Mannheim. (1:2000 dilution in 1×PBS, pH 7.4, −0.05% Tween 20). Incubate at room temperature for 1 hour, rocking gently. Wash the coated plate 3× with 1×PBS, pH 7.4, −0.05% Tween 20. Add 100 μl of rabbit anti-sheep IgG (1:2000 dilution in 1×PBS, pH 7.4, −0.05% Tween 20). Incubate at room temperature for 1 hour, rocking gently. Wash the coated plate 3× with 1×PBS, pH 7.4, −0.05% Tween 20. Add 100 μl of substrate (10 ml of distilled water, 100 μl of TMB (10 mg/ml), and 1 μl of hydrogen peroxide). Allow color to emerge and stop reaction with 25 ul of 8N sulfuric acid. Wells are read with MicroPlate Reader @ […]. Graph accumulation of ApoB in media as a percentage of control for each sample and their concentration. A determination of IC50 is obtained from the graph.

SMILES	IC50 (VCAM-1) [µM]	LD50 at [1] [µM]	IC50 (ApoB/HepG2) [µM]
CC(C)(Sc1cc(C(C)(C)C)c(O)c(C(C)(C)C)c1)Sc1cc(C(C)(C)C)c(OCC(O)CS(=O)(=O)O)c(C(C)(C)C)c1 (centres unmarked)	10	50.0	–
CCN(CC)C(=O)c1ccc(CSc2cc(C(C)(C)C)c(O)c(C(C)(C)C)c2)cc1	12.5	–	40
CC(C)(Sc1cc(C(C)(C)C)c(O)c(C(C)(C)C)c1)Sc1cc(C(C)(C)C)c(OCC2OC(O)[C@@H](O)[C@H]2O)c(C(C)(C)C)c1 (some centres unmarked)	8	–	–
CC(C)(Sc1cc(C(C)(C)C)c(O)c(C(C)(C)C)c1)Sc1cc(C(C)(C)C)c(OCC(O)COC(=O)C(O)C(O)C(O)C(O)CO)c(C(C)(C)C)c1 (centres unmarked)	7	50.0	30
CC(C)(Sc1cc(C(C)(C)C)c(O)c(C(C)(C)C)c1)Sc1cc(C(C)(C)C)c(OC[C@@H](O)[C@@H](O)[C@@H](O)CO)c(C(C)(C)C)c1	12.5	25.0	6
CN(C)C(=O)c1ccc(CSc2cc(C(C)(C)C)c(O)c(C(C)(C)C)c2)cc1	12.5	50.0	85
